Values joined by “and” are separate entries in the source; they are usually repeats but may differ in a detail not shown here. Equal entries are not always repeated. ± gives the expanded uncertainty stated by the source.
Assay: molar heat capacity at constant volume
Conditions: Fluid (supercritical or subcritical phases), Vacuum adiabatic calorimetry

FC(F)C(F)(F)F [pentafluoroethane]
Conditions	molar heat capacity at constant volume
365 K, Mass density=773.3 kg/m3	119.04 ± 2.4 J/K/mol
365 K, Mass density=881.8 kg/m3	110.32 ± 2.2 J/K/mol
365 K, Mass density=973.8 kg/m3	106.41 ± 2.1 J/K/mol and 108.3 ± 2.2 J/K/mol
365 K, Mass density=1075 kg/m3	105.75 ± 2.1 J/K/mol
366 K, Mass density=403.6 kg/m3	108.16 ± 2.2 J/K/mol
366 K, Mass density=503 kg/m3	114.45 ± 2.3 J/K/mol
366 K, Mass density=585.5 kg/m3	119.7 ± 2.4 J/K/mol and 112.44 ± 2.3 J/K/mol
366 K, Mass density=688.1 kg/m3	116.48 ± 2.3 J/K/mol
366 K, Mass density=881.7 kg/m3	110.43 ± 2.2 J/K/mol
366 K, Mass density=973.7 kg/m3	107.62 ± 2.2 J/K/mol and 109.23 ± 2.2 J/K/mol
366 K, Mass density=1074.9 kg/m3	106.22 ± 2.1 J/K/mol
367 K, Mass density=403.6 kg/m3	110.86 ± 2.2 J/K/mol
367 K, Mass density=502.9 kg/m3	113.31 ± 2.3 J/K/mol
367 K, Mass density=585.4 kg/m3	117.62 ± 2.4 J/K/mol and 110.28 ± 2.2 J/K/mol
367 K, Mass density=688.1 kg/m3	115.05 ± 2.3 J/K/mol
367 K, Mass density=881.7 kg/m3	109.7 ± 2.2 J/K/mol
367 K, Mass density=973.6 kg/m3	107.58 ± 2.2 J/K/mol and 108.96 ± 2.2 J/K/mol
367 K, Mass density=1074.8 kg/m3	106.41 ± 2.1 J/K/mol
368 K, Mass density=403.5 kg/m3	111.09 ± 2.2 J/K/mol
368 K, Mass density=502.9 kg/m3	112.14 ± 2.3 J/K/mol
368 K, Mass density=585.4 kg/m3	115.53 ± 2.3 J/K/mol and 108.9 ± 2.2 J/K/mol
368 K, Mass density=688 kg/m3	113.01 ± 2.3 J/K/mol
368 K, Mass density=773.1 kg/m3	111.16 ± 2.2 J/K/mol
368 K, Mass density=881.6 kg/m3	109.62 ± 2.2 J/K/mol
368 K, Mass density=973.6 kg/m3	106.75 ± 2.1 J/K/mol and 108.55 ± 2.2 J/K/mol
368 K, Mass density=1074.7 kg/m3	106.17 ± 2.1 J/K/mol
369 K, Mass density=403.5 kg/m3	111.67 ± 2.2 J/K/mol
369 K, Mass density=502.9 kg/m3	113.46 ± 2.3 J/K/mol
369 K, Mass density=585.4 kg/m3	118.03 ± 2.4 J/K/mol and 110.31 ± 2.2 J/K/mol
369 K, Mass density=688 kg/m3	114.37 ± 2.3 J/K/mol
369 K, Mass density=773.1 kg/m3	112.65 ± 2.3 J/K/mol
369 K, Mass density=881.6 kg/m3	110.94 ± 2.2 J/K/mol
369 K, Mass density=973.5 kg/m3	108.28 ± 2.2 J/K/mol and 109.62 ± 2.2 J/K/mol
369 K, Mass density=1074.6 kg/m3	106.18 ± 2.1 J/K/mol
370 K, Mass density=403.5 kg/m3	111.22 ± 2.2 J/K/mol
370 K, Mass density=502.9 kg/m3	114.85 ± 2.3 J/K/mol
370 K, Mass density=585.4 kg/m3	118.04 ± 2.4 J/K/mol and 108.82 ± 2.2 J/K/mol
370 K, Mass density=687.9 kg/m3	116.1 ± 2.3 J/K/mol
370 K, Mass density=773 kg/m3	113 ± 2.3 J/K/mol
370 K, Mass density=881.5 kg/m3	111.13 ± 2.2 J/K/mol
370 K, Mass density=973.4 kg/m3	107.54 ± 2.2 J/K/mol and 109.82 ± 2.2 J/K/mol
370 K, Mass density=1074.5 kg/m3	106.55 ± 2.1 J/K/mol
371 K, Mass density=403.5 kg/m3	112.09 ± 2.3 J/K/mol
371 K, Mass density=502.9 kg/m3	116.62 ± 2.3 J/K/mol
371 K, Mass density=585.3 kg/m3	116.07 ± 2.3 J/K/mol and 110.26 ± 2.2 J/K/mol
371 K, Mass density=687.9 kg/m3	113.67 ± 2.3 J/K/mol
371 K, Mass density=773 kg/m3	111.62 ± 2.2 J/K/mol
371 K, Mass density=881.4 kg/m3	110.7 ± 2.2 J/K/mol
371 K, Mass density=973.3 kg/m3	107.44 ± 2.2 J/K/mol and 109.17 ± 2.2 J/K/mol
371 K, Mass density=1074.4 kg/m3	107.07 ± 2.1 J/K/mol
372 K, Mass density=403.5 kg/m3	114.04 ± 2.3 J/K/mol
372 K, Mass density=502.8 kg/m3	115.24 ± 2.3 J/K/mol
372 K, Mass density=585.3 kg/m3	115.84 ± 2.3 J/K/mol and 110.71 ± 2.2 J/K/mol
372 K, Mass density=687.9 kg/m3	112.84 ± 2.3 J/K/mol
372 K, Mass density=772.9 kg/m3	111.54 ± 2.2 J/K/mol
372 K, Mass density=881.4 kg/m3	110.3 ± 2.2 J/K/mol
372 K, Mass density=973.3 kg/m3	107.17 ± 2.2 J/K/mol and 108.04 ± 2.2 J/K/mol
372 K, Mass density=1074.3 kg/m3	106.22 ± 2.1 J/K/mol
373 K, Mass density=403.5 kg/m3	113.17 ± 2.3 J/K/mol
373 K, Mass density=502.8 kg/m3	117.01 ± 2.4 J/K/mol
373 K, Mass density=585.3 kg/m3	117.2 ± 2.4 J/K/mol and 110.91 ± 2.2 J/K/mol
373 K, Mass density=687.8 kg/m3	113.56 ± 2.3 J/K/mol
373 K, Mass density=772.9 kg/m3	111.8 ± 2.2 J/K/mol
373 K, Mass density=881.3 kg/m3	111.19 ± 2.2 J/K/mol
373 K, Mass density=973.2 kg/m3	107.61 ± 2.2 J/K/mol and 108.78 ± 2.2 J/K/mol
374 K, Mass density=403.4 kg/m3	114.45 ± 2.3 J/K/mol
374 K, Mass density=502.8 kg/m3	119.13 ± 2.4 J/K/mol
374 K, Mass density=585.3 kg/m3	117.5 ± 2.4 J/K/mol and 112.68 ± 2.3 J/K/mol
374 K, Mass density=687.8 kg/m3	114.16 ± 2.3 J/K/mol
374 K, Mass density=772.9 kg/m3	112.71 ± 2.3 J/K/mol
374 K, Mass density=881.2 kg/m3	112 ± 2.3 J/K/mol
374 K, Mass density=973.1 kg/m3	108.98 ± 2.2 J/K/mol and 110.07 ± 2.2 J/K/mol
375 K, Mass density=403.4 kg/m3	112.95 ± 2.3 J/K/mol
375 K, Mass density=502.8 kg/m3	117.92 ± 2.4 J/K/mol
375 K, Mass density=585.2 kg/m3	116.64 ± 2.3 J/K/mol and 110.73 ± 2.2 J/K/mol
375 K, Mass density=687.8 kg/m3	113.4 ± 2.3 J/K/mol
375 K, Mass density=772.8 kg/m3	112.33 ± 2.3 J/K/mol
375 K, Mass density=881.2 kg/m3	111 ± 2.2 J/K/mol
375 K, Mass density=973 kg/m3	108.25 ± 2.2 J/K/mol and 109.81 ± 2.2 J/K/mol
376 K, Mass density=403.4 kg/m3	116.08 ± 2.3 J/K/mol
376 K, Mass density=502.8 kg/m3	116.37 ± 2.3 J/K/mol
376 K, Mass density=585.2 kg/m3	116.55 ± 2.3 J/K/mol and 110.52 ± 2.2 J/K/mol
376 K, Mass density=687.7 kg/m3	113.56 ± 2.3 J/K/mol
376 K, Mass density=772.8 kg/m3	112.56 ± 2.3 J/K/mol
376 K, Mass density=881.1 kg/m3	110.12 ± 2.2 J/K/mol
376 K, Mass density=973 kg/m3	107.55 ± 2.2 J/K/mol and 109 ± 2.2 J/K/mol
377 K, Mass density=403.4 kg/m3	115.48 ± 2.3 J/K/mol
377 K, Mass density=502.7 kg/m3	117.28 ± 2.4 J/K/mol
377 K, Mass density=585.2 kg/m3	116.34 ± 2.3 J/K/mol and 111.62 ± 2.2 J/K/mol
377 K, Mass density=687.7 kg/m3	114.45 ± 2.3 J/K/mol
377 K, Mass density=772.7 kg/m3	113.06 ± 2.3 J/K/mol
377 K, Mass density=881.1 kg/m3	110.86 ± 2.2 J/K/mol
377 K, Mass density=972.9 kg/m3	108.42 ± 2.2 J/K/mol and 108.94 ± 2.2 J/K/mol
378 K, Mass density=403.4 kg/m3	113.28 ± 2.3 J/K/mol
378 K, Mass density=502.7 kg/m3	118.29 ± 2.4 J/K/mol
378 K, Mass density=585.1 kg/m3	116.82 ± 2.4 J/K/mol and 112.87 ± 2.3 J/K/mol
378 K, Mass density=687.6 kg/m3	114.84 ± 2.3 J/K/mol
378 K, Mass density=772.7 kg/m3	112.51 ± 2.3 J/K/mol
378 K, Mass density=881 kg/m3	111.43 ± 2.2 J/K/mol
378 K, Mass density=972.8 kg/m3	108.14 ± 2.2 J/K/mol and 110.22 ± 2.2 J/K/mol
379 K, Mass density=403.3 kg/m3	117.97 ± 2.4 J/K/mol
379 K, Mass density=502.7 kg/m3	115.21 ± 2.3 J/K/mol
379 K, Mass density=585.1 kg/m3	116.17 ± 2.3 J/K/mol and 112.3 ± 2.3 J/K/mol
379 K, Mass density=687.6 kg/m3	115.82 ± 2.3 J/K/mol
379 K, Mass density=772.6 kg/m3	113.55 ± 2.3 J/K/mol
379 K, Mass density=880.9 kg/m3	111.09 ± 2.2 J/K/mol
379 K, Mass density=972.7 kg/m3	107.65 ± 2.2 J/K/mol and 109.27 ± 2.2 J/K/mol
380 K, Mass density=403.3 kg/m3	116.02 ± 2.3 J/K/mol
380 K, Mass density=502.7 kg/m3	112.64 ± 2.3 J/K/mol
380 K, Mass density=585.1 kg/m3	111.27 ± 2.2 J/K/mol
380 K, Mass density=687.6 kg/m3	113.06 ± 2.3 J/K/mol
380 K, Mass density=772.6 kg/m3	113.31 ± 2.3 J/K/mol
380 K, Mass density=880.9 kg/m3	111.18 ± 2.2 J/K/mol
380 K, Mass density=972.6 kg/m3	107.71 ± 2.2 J/K/mol and 108.81 ± 2.2 J/K/mol
381 K, Mass density=403.3 kg/m3	114.7 ± 2.3 J/K/mol
381 K, Mass density=502.6 kg/m3	115.06 ± 2.3 J/K/mol
381 K, Mass density=585 kg/m3	114.39 ± 2.3 J/K/mol
381 K, Mass density=687.5 kg/m3	113.14 ± 2.3 J/K/mol
381 K, Mass density=772.5 kg/m3	113.07 ± 2.3 J/K/mol
381 K, Mass density=880.8 kg/m3	112.11 ± 2.3 J/K/mol
381 K, Mass density=972.6 kg/m3	113.29 ± 2.3 J/K/mol and 109.7 ± 2.2 J/K/mol
382 K, Mass density=403.3 kg/m3	116.14 ± 2.3 J/K/mol
382 K, Mass density=502.6 kg/m3	117.31 ± 2.4 J/K/mol
